# Experimental data: paper PMC7363834, “A STING-based biosensor affords broad cyclic dinucleotide detection within single living eukaryotic cells” (Nature Communications, 2020)
# Columns and labels:
# BioSTING = target: T1, BioSTING (Mus musculus, UniProt Q3TBT3); experiment: DRaCALA radioactive nucleotide binding assay of BioSTING; set-up: species or system murine; settings: excess (500 µM) unlabeled nucleotide
# T1 construct: FRET pair mTFP and mKO2 at L152 and E335, respectively; His tag (N); made in house; host or cells: E. coli Rosetta (DE3)pLysS
# T1 sequence (Q3TBT3 152-335): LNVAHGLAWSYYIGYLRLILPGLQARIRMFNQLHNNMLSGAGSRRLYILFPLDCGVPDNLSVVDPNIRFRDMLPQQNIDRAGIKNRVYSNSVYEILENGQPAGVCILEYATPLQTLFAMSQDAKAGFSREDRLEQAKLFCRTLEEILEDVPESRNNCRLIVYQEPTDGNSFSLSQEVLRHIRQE
# STING-CTD (mSTING-CTD) = target: T2, STING-CTD (mSTING-CTD) (Mus musculus, UniProt Q3TBT3); experiment: DRaCALA radioactive nucleotide binding assay of STING-CTD; set-up: species or system murine; settings: excess (500 µM) unlabeled nucleotide
# T2 construct: made in house; host or cells: E. coli Rosetta (DE3)pLysS; plasmid pET28-mSTING-CTD, gift from Russell Vance
# T2 sequence (Q3TBT3 134-378 limits assumed): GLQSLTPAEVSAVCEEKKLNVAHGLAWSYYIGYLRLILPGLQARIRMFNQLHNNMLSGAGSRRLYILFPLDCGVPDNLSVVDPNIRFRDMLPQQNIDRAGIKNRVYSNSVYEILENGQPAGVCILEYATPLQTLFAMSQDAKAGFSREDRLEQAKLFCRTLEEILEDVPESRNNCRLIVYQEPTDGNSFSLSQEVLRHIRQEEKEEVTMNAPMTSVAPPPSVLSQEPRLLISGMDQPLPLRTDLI
SMILES,competition of bound [32P] 2ʼ3ʼ-cGAMP by unlabeled nucleotide (BioSTING),competition of bound [32P] 2ʼ3ʼ-cGAMP by unlabeled nucleotide (STING-CTD (mSTING-CTD))
Nc1nc2c(ncn2[C@@H]2O[C@@H]3COP(=O)(O)O[C@H]3[C@H]2O)c(=O)[nH]1 [cGMP],not,not
Nc1ncnc2c1ncn2[C@@H]1O[C@H](COP(=O)(O)OP(=O)(O)OP(=O)(O)O)[C@@H](O)[C@H]1O [ATP],not,not
Nc1nc2c(ncn2[C@@H]2O[C@H](COP(=O)(O)OP(=O)(O)OP(=O)(O)O)[C@@H](O)[C@H]2O)c(=O)[nH]1 [GTP],not,not
